# In patent publication US20060241162A1, “Optically active (R)-hydantoin derivative” (priority 2005, published 2006):
# Entries after “also recorded” stand apart in the source; their conditions may differ.
# Tested on: model rats for renal insufficiency
# Experiment: Suppressive action to the progression of renal failure in adenine-induced renal insufficiency model rats
# Assay type: in vivo, Wistar-strain male rats
# Source text: (1) Suppressive Action of the Optical Isomer to the Progression of Renal Failure
# Adenine was orally administered to Wistar-strain male rats of eight weeks age to prepare a renal insufficiency model. […] Further, a value of creatinine clearance (mL/kg/hr) decreased from 315.3±13.8 to 25.7±4.4 whereupon renal functions lowered to about one-tenth.
# From the 7th to the 17th days from administration of adenine, each of (S)-(−)- 5-hydroxy-1-methylhydantoin, (R)-(+)-5-hydroxy-1-methylhydantoin and the racemate at the dose of 100 mg/kg or 200 mg/kg was orally administered to the rat in which renal insufficiency was induced by adenine. The creatinine levels in blood before and after the administration of the test drug were compared whereupon a suppressive action of the test drug to an increase of creatinine (ΔCr) accompanied by the progress of renal insufficiency was checked and the results are shown in FIG. 1 and FIG. 2. Five rats were used as a group for the test. The average value ± standard error was calculated and the significant difference between the test drug group and the diseased control group was statistically analyzed by means of Dunnett's test or Student-t test (*; p<0.05).
smiles,measurement,setting,value
CN1C(=O)NC(=O)[C@H]1O [(R)-(+)-5-hydroxy-1-methylhydantoin],suppressive action to the progression of renal failure,"as compared with the S-form and the racemate, oral, listed as R-form",excellent suppressive action; also recorded: particularly an excellent suppressive effect
same,suppressive action to an increase of creatinine in blood (ΔCr),"oral 100 mg/kg or 200 mg/kg, 7th to 17th day of adenine, vs diseased control, p<0.05, FIG. 1 and FIG. 3",significantly suppressed
